Experiments:
[1] = test system: HT1080-derived reporter cell line; test: Growth inhibition and cell death in HT1080-derived reporter cell line; assay type: cell-based, human; conditions: cell death detected microscopically by cell detachment
Text: The combination of p21 and SNX9-class compounds leads to both G1 and G2/M arrest, at the levels expected for the combined effects of p21 and SNX9 (FIG. 6).

[2] = test system: p21-induced CMV-GFP expression (CDKI pathway); test: CMV-GFP reporter assay for p21-induced transcription (HTS) in HT1080 p21-9 derived reporter cell line; assay type: cell-based, human; conditions: libraries screened at 20 μM
Text: As described in a co-pending patent application PCT/US06/0 1046, we have developed a high-throughput screening (HTS) procedure for compounds inhibiting the CDKI pathway. This procedure utilizes a highly sensitive reporter cell line that was generated by infecting HT1080 p21-9 cells, a derivative of HT1080 fibrosarcoma cells that express p21 from a promoter induced by a physiologically neutral β-galactoside IPTG (isopropyl-β-thio-galactoside) with a lentiviral vector that expresses Green Fluorescent Protein (GFP) from the CDKI-inducible cytomegalovirus (CMV) promoter, followed by subcloning of GFP positive cells and monitoring the induction of GFP expression by IPTG. A cell line showing approximately 10-fold increase in GFP upon the addition of IPTG was used for HTS in a 96-well format.
This reporter line was used to screen two diversified small-molecule libraries developed by ChemBridge Corp., Microformat 04 and DiverSet, each comprising 50,000 compounds. These diversified libraries were rationally chosen by ChemBridge by quantifying pharmacophores in a collection of >500,000 drug-like molecules, using a version of Chem-X software to maximize the pharmacophore diversity. The Microformat 04 collection was designed to complement the chemical space covered by the older DiverSet library. ChemBridge libraries have been successfully used by numerous industrial and academic researchers, in a variety of cell-based and cell-free assays. The ChemBridge libraries were screened at 20 μM concentration, a conventional concentration for cell-based screening of these libraries. 62 of 100,000 ChemBridge compounds were identified by HTS and verified as inhibiting the induction of CMV-GFP expression in response to p21. This low hit rate (0.06%) indicates a high selectivity of our assay.
In this experiment, HT1080 p21-9 cells that express firefly luciferase from a CDKI-responsive promoter of cellular NK4 gene were cultured with IPTG for two days, which is sufficient for near-maximal induction of NK4 (Poole et al., supra).

[3] = test system: NFκB p50 and p65 subunits; test: TransAM NFκB p65 and p50 Chemi Transcription Factor Assay (oligonucleotide binding); assay type: cell-based; conditions: TNFα-induced or basal
Text: We also tested if these compounds could act as the inhibitors of NFκB, by measuring cellular levels of p50 or p65 subunits binding oligonucleotides containing NFκB consensus binding site, using ACTIVE MOTIF TransAM™ NFκB p65 Chemi and NFκB p50 Chemi Transcription Factor Assay Kits.

[4] = test system: HMEC primary cultures, MCF-7 and MDA231; test: 3-day growth inhibition assay (Hoechst 33342), normal mammary epithelial cells vs breast carcinoma lines; conditions: 3-day assay; HMEC vs MCF-7 and MDA231
Experimental: (§1) The assays were carried out in 96-well plates, in triplicates; the plated cell numbers for each cell line were determined in preliminary experiments to assure exponential growth over the 3-day period of the assay. The cell numbers were measured by staining DNA of attached cells with Hoechst 33342, and the results for each dose were expressed as the decrease in cell number relative to untreated cells. For some of the tumor/normal cell line combinations, the assays were repeated using CellTiter-Glo viability assay (Promega), with the same results.

[5] = test system: WI-38 and BJ-EN fibroblasts vs HT1080, HCT116, C33-A, Calu-6; test: 3-day growth inhibition assay (Hoechst 33342), normal fibroblasts vs tumor cell lines; conditions: 3-day assay, WI-38, BJ-EN vs HT1080, HCT116, C33-A
Experimental: as §1

[6] = test system: isogenic human fibroblast cell lines (untransformed, partially transformed, fully transformed); test: Dose-dependent growth inhibition of three isogenic human fibroblast cell lines with increasing neoplastic transformation; assay type: cell-based; conditions: 3-day assay, Hoechst 33342
Text: To determine if tumor-specific growth inhibitory activity of SNX9 class compounds could be due to the inhibition of a specific CDK, we took advantage of the availability of selective inhibitors for some of the CDK proteins. Among these enzymes, CDK1, CDK2 and CDK4/CDK6 (the latter two CDKs are closely related to each other and interact with the same class of cyclins), have been used as targets for developing specific inhibitors, with potential anticancer activity. In contrast, CDK3 has not been used as a target for developing selective inhibitors. We have obtained commercially available selective inhibitors of CDK1 (CGP74514A) (Calbiochem Cat. No. 217696), CDK2 (CVT-313) (Calbiochem Cat. No. 238803), and CDK4 (NSC 625987) (Calbiochem Cat. No. 219477), and tested them, along with a broad-specificity CDK inhibitor flavopiridol, and with SNX14, SNX9 and SNX9-1, for growth inhibition of normal and transformed fibroblasts.
This analysis was done using a set of three isogenic human fibroblast cell lines with increasing degrees of neoplastic transformation (immortal but untransformed, partially transformed, and fully transformed).

| Structure (SMILES) | tumor selectivity of growth inhibition, normal vs transformed mammary cells [4] | tumor selectivity of growth inhibition, tumor cells vs normal fibroblasts [5] | selectivity of growth inhibition for transformed cell lines relative to immortal but untransformed fibroblasts [6] | also measured |
| --- | --- | --- | --- | --- |
| NCCc1c[nH]c2ccc(Cl)cc12 [Compound 3] |  |  |  | growth inhibition of the HT1080-derived reporter cell line [1]: associated with the induction of both cell death (as detected microscopically by cell detachment) and cell cycle arrest; anti-CDKI pathway activity in the reporter assay (induction of CMV-GFP expression in response to p21) [2]: showed anti-CDKI pathway activity in the reporter assay |
| COc1cc(Cl)c2[nH]cc(CCN)c2c1 [Compound 4] |  |  |  | growth inhibition of the HT1080-derived reporter cell line [1]: associated with the induction of both cell death (as detected microscopically by cell detachment) and cell cycle arrest; anti-CDKI pathway activity in the reporter assay (induction of CMV-GFP expression in response to p21) [2]: showed anti-CDKI pathway activity in the reporter assay |
| Cc1ccc(S(=O)(=O)N[C@@H](Cc2ccccc2)C(=O)CCl)cc1 [TPCK, reference compound] |  |  |  | NFκB activity (p50 or p65 binding to NFκB consensus oligonucleotide) [3]: completely blocks NFκB activity |
| CC[C@@]1(O)C(=O)OCc2c1cc1n(c2=O)Cc2cc3ccccc3nc2-1 [camptothecin] | no discrimination between normal and transformed mammary cells | showed no selectivity |  |  |
| COc1cccc2c1C(=O)c1c(O)c3c(c(O)c1C2=O)C[C@@](O)(C(=O)CO)C[C@@H]3O[C@H]1C[C@H](N)[C@H](O)[C@H](C)O1 [doxorubicin] | no discrimination between normal and transformed mammary cells | showed no selectivity |  |  |
| CN1CC[C@H](c2c(O)cc(O)c3c(=O)cc(-c4ccccc4Cl)oc23)[C@H](O)C1 [flavopiridol] |  |  | no transformed cell selectivity whatsoever |  |
| CCn1cnc2c(Nc3cccc(Cl)c3)nc(N[C@@H]3CCCC[C@@H]3N)nc21 [selective CDK1 inhibitor, CGP74514A] |  |  | Much lower selectivity for transformed cells |  |
| COc1ccc(CNc2nc(N(CCO)CCO)nc3c2ncn3C(C)C)cc1 [selective inhibitor of CDK2, CVT-313] |  |  | no transformed cell selectivity whatsoever |  |
| COc1ccc(OC)c2c(=S)c3ccccc3[nH]c12 [selective inhibitor of CDK4, NSC 625987] |  |  | no transformed cell selectivity whatsoever |  |
| CC(=O)O[C@H]1C(=O)[C@@]2(C)[C@H]([C@H](OC(=O)c3ccccc3)[C@]3(O)C[C@H](OC(=O)[C@H](O)[C@@H](NC(=O)c4ccccc4)c4ccccc4)C(C)=C1C3(C)C)[C@]1(OC(C)=O)CO[C@@H]1C[C@@H]2O [taxol, paclitaxel] | clear tumor selectivity | inhibited all the tumor cells to a greater extent than normal fibroblasts |  |  |

— patent US20080200531A1, “CDKI pathway inhibitors as inhibitors of tumor cell growth” (priority 2006, published 2008)
